pIC50: −log10 of the molar value.
How the values were obtained:
Assay type in all cases: cell-based
ERα = molecular target: T1, ERα (Homo sapiens, UniProt P03372); assay: Protein degradation assay: ERα in MCF-7 cells via western blot; conditions: 6 h; for ERα Protein Degradation 1 nM: 1 nM compound; for ERα Protein Degradation 10 nM: 10 nM compound; for ERα Protein Degradation 100 nM: 100 nM compound
T1 construct: degrading an ERα in MCF-7 cells via a western blot; endogenous in cells; host or cells: MCF-7
T1 sequence (P03372 1-595): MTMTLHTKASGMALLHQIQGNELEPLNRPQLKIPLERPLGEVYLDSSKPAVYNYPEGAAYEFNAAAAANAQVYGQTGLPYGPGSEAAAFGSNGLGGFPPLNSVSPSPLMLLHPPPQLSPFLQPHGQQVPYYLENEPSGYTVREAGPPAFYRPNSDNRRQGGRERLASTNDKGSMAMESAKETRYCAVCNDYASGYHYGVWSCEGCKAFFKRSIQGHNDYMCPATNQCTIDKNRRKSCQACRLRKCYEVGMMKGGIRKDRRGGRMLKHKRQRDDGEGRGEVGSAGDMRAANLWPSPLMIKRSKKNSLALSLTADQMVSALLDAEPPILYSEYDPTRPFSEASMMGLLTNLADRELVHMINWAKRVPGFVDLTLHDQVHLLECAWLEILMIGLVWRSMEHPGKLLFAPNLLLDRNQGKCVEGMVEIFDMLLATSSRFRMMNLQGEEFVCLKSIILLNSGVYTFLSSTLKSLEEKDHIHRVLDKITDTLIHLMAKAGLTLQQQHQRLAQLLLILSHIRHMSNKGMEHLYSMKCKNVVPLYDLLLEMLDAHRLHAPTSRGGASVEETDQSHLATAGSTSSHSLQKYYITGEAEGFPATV
Protocol: A compound provided herein was assessed for its activity in degrading an ERα in MCF-7 cells via a western blot. The MCF7 cells were cultured at 37° C. in a humidified 5% C02 environment in MEM supplemented with 10% FBS with insulin. The cells were seeded in 12-well plates at a density of 300,000 cells per well in maintenance media. Cells were treated with the compound at predetermined concentrations (e.g., 1 nM, 10 nM, 100 nM, and 1 μM) for 6 h. The cells were then washed in PBS and the whole cells were lysed in a cell lysis buffer and incubated for 15 minutes on ice. Cell debris was removed by high-speed centrifugation and the cleared whole cell lysates were prepared for further analysis by a western blot. The whole cell protein extracts were separated on SDS-polyacrylamide gels, transferred to nitrocellulose membranes, and probed with primary antibodies, including anti-ERα antibody and GAPDH antibody for loading control. The membranes were subsequently washed and probed with secondary antibodies for chemiluminescence, followed by imaging on a BIORAD CHEMIDOC Imaging System. The results are summarized in Table 2, where “A” represents a percentage degradation value of no less than 50%; “B” represents a percentage degradation value of less than 50% and no less than 25%; “C” represents a percentage degradation value of less than 25% and no less than 10%; and “D” represents a percentage degradation value of less than 10%.

MCF7 cells = assay: Cell viability assay ([…]-GLO, 6-day treatment); conditions: Homo sapiens, MCF7, 144 h; MCF-7 cells, 6 days, CTG; read-out: Inhibition of Cancerous Cells IC50 MCF-7
Protocol: (§1) A compound provided herein was evaluated for its anticancer activity in MCF7 and T47D cells. MCF7 and T47D cells were cultured at 37° C. in a humidified 5% C02 environment in MEM or RPMI, supplemented with 10% FBS with insulin, respectively. The cells were plated in 384-well microplates at a density of 1,000 cells per well in their respective maintenance media. The cells were treated with the compound by a 10-point dose response curve for 6 days, during which, the medium and compound were refreshed once. After the 6-day treatment, the cell viability was assessed using […]-GLO (CTG) reagent. Luminescence was measured with a microplate reader.

T47D cells = assay: Cell viability assay ([…]-GLO, 6-day treatment); conditions: Homo sapiens, 144 h, 6 days, CTG, read-out: Inhibition of Cancerous Cells IC50 T47D
Protocol: as §1

| SMILES | ERα Protein Degradation 1 nM (ERα) | ERα Protein Degradation 10 nM (ERα) | ERα Protein Degradation 100 nM (ERα) | pIC50 (MCF7 cells) | pIC50 (T47D cells) |
| --- | --- | --- | --- | --- | --- |
| O=C1CC[C@@H](N2Cc3cc(N4CCN(CC5CCN(c6ccc(C7c8ccc(O)cc8CC[C@@H]7c7ccccc7)cc6)CC5)CC4)ccc3C2=O)C(=O)N1 (stereo in doubt) [Compound A15, (R)-3-(5-(4-((1-(4-((1R,2S)-6-Hydroxy-2-phenyl-1,2,3,4-tetrahydronaphthalen-1-yl)phenyl)piperidin-4-yl)methyl)piperazin-1-yl)-1-oxoisoindolin-2-yl)piperidine-2,6-dione] | D (a percentage degradation value of less than 10%) | C (a percentage degradation value of less than 25% and no less than 10%) | D (a percentage degradation value of less than 10%) | 8.92 | 9.02 |
| O=C1CCC(N2Cc3cc(N4CCN(CC5CCN(c6ccc(C7c8ccc(O)cc8CC[C@@H]7c7ccccc7)cc6)CC5)CC4)ccc3C2=O)C(=O)N1 (stereo in doubt) [Compound A16, (S)-3-(5-(4-((1-(4-((1R,2S)-6-Hydroxy-2-phenyl-1,2,3,4-tetrahydronaphthalen-1-yl)phenyl)piperidin-4-yl)methyl)piperazin-1-yl)-1-oxoisoindolin-2-yl)piperidine-2,6-dione] | B (a percentage degradation value of less than 50% and no less than 25%) | A (a percentage degradation value of no less than 50%) | A (a percentage degradation value of no less than 50%) | 9.17 | 9.66 |
| O=C1CCC(N2Cc3c(cc(F)cc3C3CCN(CCCCOc4ccc([C@@H]5c6ccc(O)cc6CC[C@@H]5c5ccccc5)cc4)CC3)C2=O)C(=O)N1 (stereo partly drawn) [Compound A1, 3-(6-fluoro-4-(1-(4-(4-((1R,2S)-6-hydroxy-2-phenyl-1,2,3,4-tetrahydro-naphthalen-1-yl)phenoxy)butyl)piperidin-4-yl)-1-oxoisoindolin-2-yl)piperidine-2,6-dione] | C (a percentage degradation value of less than 25% and no less than 10%) | C (a percentage degradation value of less than 25% and no less than 10%) | B (a percentage degradation value of less than 50% and no less than 25%) | > 11.00 | 9.62 |
| Cn1nc(C2CCC(=O)NC2=O)c2cccc(OCC(=O)N3CCN(CCCCOc4ccc(CC5(C)C(c6ccc(O)cc6)=Nc6ccc(O)cc65)cc4)CC3)c21 (stereo not shown) [Compound D4, 3-(7-(2-(4-(4-(4-((5-hydroxy-2-(4-hydroxyphenyl)-3-methyl-3H-indol-3-yl)-methyl)phenoxy)butyl)piperazin-1-yl)-2-oxoethoxy)-1-methyl-1H-indazol-3-yl)piperidine-2,6-dione] | D (a percentage degradation value of less than 10%) | D (a percentage degradation value of less than 10%) | C (a percentage degradation value of less than 25% and no less than 10%) | – | 7.08 |
| Cc1c(-c2ccc(O)cc2)n(Cc2ccc(OCCCCN3CCN(C(=O)COc4cccc5c(N6CCC(=O)NC6=O)nn(C)c45)CC3)cc2)c2ccc(O)cc12 [Compound D23, 1-(7-(2-(4-(4-(4-((5-hydroxy-2-(4-hydroxyphenyl)-3-methyl-1H-indol-1-yl)-methyl)phenoxy)butyl)piperazin-1-yl)-2-oxoethoxy)-1-methyl-1H-indazol-3-yl)dihydro-pyrimidine-2,4(1H,3H)-dione] | C (a percentage degradation value of less than 25% and no less than 10%) | C (a percentage degradation value of less than 25% and no less than 10%) | D (a percentage degradation value of less than 10%) | 8.77 | – |
| Cc1c(-c2ccc(O)cc2)n(Cc2ccc(OCCCCN3CCN(c4cc5c(s4)CN(C4CCC(=O)NC4=O)C5=O)CC3)cc2)c2ccc(O)cc12 (stereo not shown) [Compound E6, 3-(2-(4-(4-(4-((5-Hydroxy-2-(4-hydroxyphenyl)-3-methyl-1H-indol-1-yl)methyl)-phenoxy)butyl)piperazin-1-yl)-4-oxo-4,6-dihydro-5H-thieno[2,3-c]pyrrol-5-yl)piperidine-2,6-dione] | D (a percentage degradation value of less than 10%) | D (a percentage degradation value of less than 10%) | D (a percentage degradation value of less than 10%) | 9.66 | – |
| Cc1c(-c2ccc(O)cc2)n(Cc2ccc(OCCCCN3CCN(C(=O)COc4ccc5c(C6CCC(=O)NC6=O)nn(C)c5c4)CC3)cc2)c2ccc(O)cc12 (stereo not shown) [Compound E14, 3-(6-(2-(4-(4-(4-((5-Hydroxy-2-(4-hydroxyphenyl)-3-methyl-1H-indol-1-yl)-methyl)phenoxy)butyl)piperazin-1-yl)-2-oxoethoxy)-1-methyl-1H-indazol-3-yl)piperidine-2,6-dione] | B (a percentage degradation value of less than 50% and no less than 25%) | B (a percentage degradation value of less than 50% and no less than 25%) | D (a percentage degradation value of less than 10%) | 9.48 | – |
| Cc1c(-c2ccc(O)cc2)n(Cc2ccc(OCCCCN3CCN(C(=O)COc4ccc(C5CCC(=O)NC5=O)cc4)CC3)cc2)c2ccc(O)cc12 (stereo not shown) [Compound E24, 3-(4-(2-(4-(4-(4-((5-hydroxy-2-(4-hydroxyphenyl)-3-methyl-1H-indol-1-yl)-methyl)phenoxy)butyl)piperazin-1-yl)-2-oxoethoxy)phenyl)piperidine-2,6-dione] | D (a percentage degradation value of less than 10%) | D (a percentage degradation value of less than 10%) | D (a percentage degradation value of less than 10%) | 8.77 | – |
| Cc1c(-c2ccc(O)cc2)n(Cc2ccc(OCCCCN3CCN(C(=O)COc4cccc(C5CCC(=O)NC5=O)c4)CC3)cc2)c2ccc(O)cc12 (stereo not shown) [Compound E25, 3-(3-(2-(4-(4-(4-((5-Hydroxy-2-(4-hydroxyphenyl)-3-methyl-1H-indol-1-yl)-methyl)phenoxy)butyl)piperazin-1-yl)-2-oxoethoxy)phenyl)piperidine-2,6-dione] | D (a percentage degradation value of less than 10%) | D (a percentage degradation value of less than 10%) | D (a percentage degradation value of less than 10%) | 8.30 | – |
| Cc1c(-c2ccc(O)cc2)n(Cc2ccc(OCCCCN3CCN(C(=O)COc4cccc(N5CCC(=O)NC5=O)c4)CC3)cc2)c2ccc(O)cc12 [Compound E26, 1-(3-(2-(4-(4-(4-((5-Hydroxy-2-(4-hydroxyphenyl)-3-methyl-1H-indol-1-yl)-methyl)phenoxy)butyl)piperazin-1-yl)-2-oxoethoxy)phenyl)dihydropyrimidine-2,4(1H,3H)-dione] | D (a percentage degradation value of less than 10%) | D (a percentage degradation value of less than 10%) | D (a percentage degradation value of less than 10%) | 8.42 | – |

— patent publication US20240368121A1, “ESTROGEN RECEPTOR DEGRADERS, PHARMACEUTICAL COMPOSITIONS THEREOF, AND THEIR THERAPEUTIC APPLICATIONS” (BioTheryX, Inc., priority 2021, published 2024)
